According to US5922748A, “Indole derivatives as 5-HT agonists” (Glaxo Wellcome Inc., priority 1994, dated 1999):
Like-named read-outs stand apart in the source and are kept apart here.

Tests used:
[1] = target: T1, "5-HT1 -like" receptor mediating smooth muscle contraction (Oryctolagus cuniculus, UniProt P49144); assay: Rabbit Saphenous Vein Assay (contraction of isolated ring segments); type: cell-based, male New Zealand White Rabbits; conditions: antagonism, given where compounds were found to be antagonists
T1 construct: Right and left lateral saphenous veins were obtained from male New Zealand White Rabbits; from tissue; host or cells: rabbit lateral saphenous vein ring segments

[2] = target: T1, "5-HT1 -like" receptor mediating smooth muscle contraction; assay: as above; type: cell-based, male New Zealand White Rabbits; conditions: for Emax: read-out: (α)
Experimental: A: Rabbit Saphenous Vein Assay
Compounds of formula (I) prepared in Synthetic Examples 1 to 17 were each tested for their activity as agonists […] for the "5-HT1 -like" receptor mediating smooth muscle contraction by the following method.
[…]. Cocaine (30 μM) was present in the Krebs' solution throughout the experiment to prevent the uptake of amines by sympathetic neurones. The Krebs' solution was maintained at 37° C. and continually gassed with 95% oxygen/5% carbon dioxide. Increases in tissue isometric force were measure using Grass FT03C force displacement transducers and recorded on a Gould BD-212 pen recorder.
A force of 1.0 g was applied to each preparation and re-established twice during a subsequent period of 30 minutes.
Agonist activity was assessed by […] additions of the test compound, its concentration being increased in 0.5 log10 unit increments until further additions caused no further change in tissue force. In each experiment, the activity of the test compound was compared to the activity of 5-HT.

"5-HT1 -like" receptor = target: T2, "5-HT1 -like" receptor (Bos taurus, UniProt F1MGM3); assay: Calf Caudate Assay (competition binding with [3H]-5HT, calf caudate nucleus membranes); conditions: 3.5 nM [3H]-5HT with 15 μM mesulergine and 15 μM 8-OH-DPAT, text says pIC50 converted by Cheng-Prusoff
T2 construct: Membranes were prepared from homogenates of calf caudate nucleus; from tissue; host or cells: calf caudate nucleus membranes

[3] = agonism, rabbit saphenous vein rings, 37° C., pH 7.4, compared to 5-HT, read-out: pA50 (converted)
[4] = value in parentheses after pA50 in Table 1, rabbit saphenous vein, compared to 5-HT

T1 sequence (P49144 whole entry): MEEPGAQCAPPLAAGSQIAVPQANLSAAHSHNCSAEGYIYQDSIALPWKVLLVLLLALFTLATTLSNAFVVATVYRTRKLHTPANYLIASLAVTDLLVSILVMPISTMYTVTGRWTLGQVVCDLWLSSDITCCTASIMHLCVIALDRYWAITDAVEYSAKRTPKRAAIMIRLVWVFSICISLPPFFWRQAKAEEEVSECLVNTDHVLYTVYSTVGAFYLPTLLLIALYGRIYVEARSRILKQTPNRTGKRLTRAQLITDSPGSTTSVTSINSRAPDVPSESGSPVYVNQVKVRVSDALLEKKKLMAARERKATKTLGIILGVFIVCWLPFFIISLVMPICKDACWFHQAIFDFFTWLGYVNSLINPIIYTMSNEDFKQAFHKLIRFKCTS
T2 sequence (F1MGM3 1-403): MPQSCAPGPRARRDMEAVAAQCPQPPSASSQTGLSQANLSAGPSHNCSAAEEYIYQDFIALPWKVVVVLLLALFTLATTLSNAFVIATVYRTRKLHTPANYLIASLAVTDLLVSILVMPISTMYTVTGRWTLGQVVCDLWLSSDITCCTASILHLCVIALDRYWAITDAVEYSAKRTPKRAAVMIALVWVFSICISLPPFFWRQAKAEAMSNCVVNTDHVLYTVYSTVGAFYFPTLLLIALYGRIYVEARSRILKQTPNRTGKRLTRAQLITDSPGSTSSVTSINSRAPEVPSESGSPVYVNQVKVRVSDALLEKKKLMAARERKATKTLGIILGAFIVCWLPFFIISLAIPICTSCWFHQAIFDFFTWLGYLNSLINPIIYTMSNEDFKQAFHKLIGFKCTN

4-[3-(trans-3dimethylaminocyclobut-1-ylmethyl)-1H-indol-5-ylmethyl]-(4S)oxazolidin-2-one [Example 19]
pKb [1]: 5.73

CN(C)[C@H]1C[C@H](c2c[nH]c3ccc(CC4CNC(=O)O4)cc32)C1 (single isomer, unassigned; (+)) [Example 21, (+)-5-[3-trans-3-dimethylaminocyclobutyl-1H-indol-5-lmethyl]oxazolidin-2-one]
EC50 [2, 3]: 3.63 µM
Emax [2, 4]: 16%

N[C@H]1C[C@@H](c2c[nH]c3ccc(C[C@H]4COC(=O)N4)cc32)C1 [Example 1 (cis), 4-[3-(cis-3-aminocyclobutyl)-5-indolymethyl]-(4S)-oxazolidin-2-one acetate]
EC50 [2, 3]: 1.58 µM
Emax ([2]; rabbit): 76%

N[C@H]1C[C@H](c2c[nH]c3ccc(C[C@H]4COC(=O)N4)cc32)C1 [Example 1 (trans), 4-[3-(trans-3-aminocyclobutyl)-5-indolylmethyl)-(4S)-oxazolidin-2-one acetate]
EC50 [2]: 0.38 µM
Emax ([2]; rabbit): 78%

N[C@H]1C[C@H](c2c[nH]c3ccc(C[C@H]4COC(=O)N4)cc32)C1 [Example 1, 4-[3-(trans-3-aminocyclobutyl)-5-indolylmethyl)-(4S)-oxazolidin-2-one]
Activity P[A50 ] ("5-HT1 -like" receptor): 7.8

CN(C)[C@H]1C[C@H](c2c[nH]c3ccc(CCN4C(=O)CNC4=O)cc32)C1 [Example 3]
Kb [1]: 1.91 µM

CN(C)[C@H]1C[C@H](c2c[nH]c3ccc(C[C@H]4COC(=O)N4)cc32)C1 [Example 4, 4-[3-(trans-3-dimethylaminocyclobutyl)-1H-indol-5-ylmethyl]-(4S)oxazolidin-2-one]
EC50 [2, 3]: 1.91 µM
Emax [2, 4]: 9%

CN(C)[C@H]1C[C@H](c2c[nH]c3ccc(CCN4C(=O)NC(C)(C)C4=O)cc32)C1 [Example 5]
Kb [1]: 0.891 µM

CC1(C)NC(=O)N(CCc2ccc3[nH]cc([C@H]4C[C@H](N)C4)c3c2)C1=O [Example 6, 3-{2-[3-(trans-3-aminocyclobutyl)-1H-indol-5-yl]ethyl}-5,5-dimethylimidazolidin-2,4-dione]
Kb [1]: 2.69 µM

CN(C)[C@H]1C[C@H](c2c[nH]c3ccc(CCN4C(=O)c5ccccc5C4=O)cc32)C1 [Example 7]
Kb [1]: 0.17 µM

CN(C)[C@H]1C[C@H](c2c[nH]c3ccc(CCN4C(=O)CC5(CCCCC5)CC4=O)cc32)C1 [Example 8, 3-{2-[3-(trans-3-dimethylaminocyclobutyl)-1H-indol-5-yl]ethyl}-3-azaspiro[5,5]undecane-2,4-dione]
pKb [1]: 7.18

CN(C)[C@H]1C[C@H](c2c[nH]c3ccc(CN4C(=O)CNC4=O)cc32)C1 [Example 9, 3-[3-(trans-3-dimethylaminocyclobutyl)-1H-indol-5-ylmethyl]imidazolidin-2,4-dione]
Kb [1]: 9.33 µM

CNS(=O)(=O)Cc1ccc2[nH]cc([C@H]3C[C@H](N(C)C)C3)c2c1 [Example 10, N-methyl-[3-(trans-3-dimethylaminocyclobutyl)-1H-indol-5-yl]methanesulphonamide]
Kb [2]: 5.62 µM

CN(C)[C@H]1C[C@H](c2c[nH]c3ccc(C[C@@H]4COC(=O)N4)cc32)C1 [Example 11, 4-[3-(trans-3-dimethylaminocyclobutyl)-1H-indol-5-ylmethyl]-(4R)oxazolidin-2-one]
Kb [1]: 11.2 µM

CN(C)[C@H]1C[C@H](c2c[nH]c3ccc(CN4C(=O)NC(C)(C)C4=O)cc32)C1 [Example 12, 5,5-dimethyl-3-[3-(trans-3-dimethylaminocyclobutyl)-1H-indol-5-ylmethyl]imidazolidin-2,4-dione]
Kb [1]: 0.589 µM

CN1C(=O)OC[C@H]1Cc1ccc2[nH]cc([C@H]3C[C@H](N(C)C)C3)c2c1 [Example 13, 4-[3-(trans-3-dimethylaminocyclobutyl)-1H-indol-5-ylmethyl]-3-methyl(4R)oxazolidin-2-one]
EC50 [2, 3]: 14.1 µM
Emax [2, 4]: 38%

CN(C)[C@H]1C[C@H](c2c[nH]c3ccc(C(N)=O)cc32)C1 [Example 14, 5-carboxamido-3-(trans-3-dimethylaminocyclobutyl)-1H-indole]
EC50 [2]: 0.562 µM
Emax ([2]; rabbit): 52%

CN(C)[C@H]1C[C@@H](c2c[nH]c3ccc(C[C@H]4COC(=O)N4)cc32)C1 [Example 15]
EC50 [2, 3]: 7.08 µM
Emax [2, 4]: 29%

N[C@H]1C[C@H](c2c[nH]c3ccc(Oc4ccccc4)cc32)C1 [Example 16, 5-phenoxy-3-(trans-3-aminocyclobutyl)-1H-indole]
Kb [2]: > 0.316 µM

CN(C)[C@H]1C[C@H](c2c[nH]c3ccc(Oc4ccccc4)cc32)C1 [Example 17, 5-phenoxy-3-(trans-3-dimethylaminocyclobutyl)-1H-indole]
Kb [2]: 0.24 µM

Cc1noc(-c2ccc3[nH]cc([C@H]4C[C@H](N(C)C)C4)c3c2)n1 [Example 18, 3-methyl-5-[3-(trans-3-dimethylaminocyclobutyl)indol-5-yl]-1,2,4-oxadiazole]
Kb [2]: 0.955 µM

CN[C@H]1C[C@H](c2c[nH]c3ccc(C[C@H]4COC(=O)N4)cc32)C1 [Example 22, 4-[3-(trans-3-methylaminocyclobutyl)-1H-indol-5-ylmethyl]-(4S) oxazolidin-2-one]
EC50 [2, 3]: 0.708 µM
Emax [2, 4]: 72%

CN(C)[C@H]1C[C@H](c2c[nH]c3ccc(C(=O)NCc4ccccc4)cc32)C1 [Example 23]
Kb [1]: 1.26 µM

CN(C)[C@H]1C[C@H](c2c[nH]c3ccc(CCN4C(=O)c5ccccc5C4=O)cc32)C1 [Example 24, 2-{2-[3-(trans-3-dimethylaminocyclobutyl)-1H-indol-5-yl]ethyl} phthalamide]
EC50 [2, 3]: 6.17 µM
Emax [2, 4]: 48%

CN(C)[C@H]1C[C@H](c2c[nH]c3ccc(CC(N)=O)cc32)C1 [Example 25, 3-[trans-3-dimethylaminocyclobutyl]-1H-indol-5-yl acetamide]
Kb [2]: 16.6 µM

CN(C)[C@H]1C[C@H](c2c[nH]c3ccc(CC(=O)NCc4ccccc4)cc32)C1 [Example 26, N-benzyl-3-[trans-3-dimethylaminocyclobutyl]-1H-indol-5-yl acetamide]
Kb [1]: 3.89 µM

Cc1noc(Cc2ccc3[nH]cc([C@H]4C[C@H](N(C)C)C4)c3c2)n1 [Example 27, 3-methyl-5-[3-(trans-3-dimethylaminocyclobutyl)-1H-indol-5-ylmethyl] 1,2,4-oxadiazole]
Kb [1]: 759 µM

Cc1nc(Cc2ccc3[nH]cc([C@H]4C[C@H](N(C)C)C4)c3c2)n[nH]1 [Example 28, 3-methyl-5-[3-(trans-3-dimethylaminocyclobutyl)-1H-indol-5-ylmethl]1,2,4-triazole]
Kb [1]: 6.61 µM
